Measured values published in patent US12077503B2, “Substituted cyclic amides and their use as herbicides” (FMC CORPORATION, priority 2015, dated 2024).

Tests used:
Type in all cases: in vivo
[1] = system: barnyardgrass (Echinochloa crus-galli); assay: Test G Pre-Emergence Protocol; details: Echinochloa crus-galli, pre-emergence, 312 h, evaluated after 13 days; for pest or weed control at 15.625 g/ha: 15.625 g ai/ha; for pest or weed control at 15.625 g/ha / pest or weed control at 250 g/ha: read-out: Barnyardgrass damage rating (100=total damage to plant; 0=no damage to plant); for pest or weed control at 62.5 g/ha: 62.5 g ai/ha, 100=total damage to plant, 0=no damage to plant, read-out: Barnyardgrass damage rating; for pest or weed control at 250 g/ha: 250 g ai/ha
How it was run: (§1)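 Visual injury (0–100) at day 13 after a single pre-emergence spray. Rates: 15.625, 62.5, 250 g/ha in acetone–water 50:50 with 0.5% Tween 20. Growth conditions: 24/16° C, 14 h light, 65% humidity.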

[2] = system: corn (Zea mays); assay: Test G Pre-Emergence Protocol; details: Zea mays, pre-emergence, 312 h, evaluated after 13 days; for plant injury at 15.625 g/ha: 15.625 g ai/ha; for plant injury at 15.625 g/ha / plant injury at 250 g/ha: read-out: Corn damage rating (100=total damage to plant; 0=no damage to plant); for plant injury at 62.5 g/ha: 62.5 g ai/ha, 100=total damage to plant, 0=no damage to plant, read-out: Corn damage rating; for plant injury at 250 g/ha: 250 g ai/ha
How it was run: as §1

[3] = system: giant foxtail (Setaria faberi); assay: Test G Pre-Emergence Protocol; details: Setaria faberi, pre-emergence, 312 h, evaluated after 13 days; for pest or weed control at 15.625 g/ha: 15.625 g ai/ha; for pest or weed control at 15.625 g/ha / pest or weed control at 250 g/ha: read-out: Foxtail, Giant damage rating (100=total damage to plant; 0=no damage to plant); for pest or weed control at 62.5 g/ha: 62.5 g ai/ha, 100=total damage to plant, 0=no damage to plant, read-out: Foxtail, Giant damage rating; for pest or weed control at 250 g/ha: 250 g ai/ha
How it was run: as §1

[4] = system: ivy-leaved morning glory (Ipomoea hederacea); assay: Test G Pre-Emergence Protocol; details: Ipomoea, pre-emergence, 312 h, evaluated after 13 days; for pest or weed control at 15.625 g/ha: 15.625 g ai/ha; for pest or weed control at 15.625 g/ha / pest or weed control at 250 g/ha: read-out: Morningglory, Ivy-leaved damage rating (100=total damage to plant; 0=no damage to plant); for pest or weed control at 62.5 g/ha: 62.5 g ai/ha, 100=total damage to plant, 0=no damage to plant, read-out: Morningglory, Ivy-leaved damage rating; for pest or weed control at 250 g/ha: 250 g ai/ha
How it was run: as §1

[5] = system: redroot pigweed (Amaranthus retroflexus); assay: Test G Pre-Emergence Protocol; details: Amaranthus retroflexus, pre-emergence, 312 h, evaluated after 13 days; for pest or weed control at 15.625 g/ha: 15.625 g ai/ha; for pest or weed control at 15.625 g/ha / pest or weed control at 250 g/ha: read-out: Pigweed, Redroot damage rating (100=total damage to plant; 0=no damage to plant); for pest or weed control at 62.5 g/ha: 62.5 g ai/ha, 100=total damage to plant, 0=no damage to plant, read-out: Pigweed, Redroot damage rating; for pest or weed control at 250 g/ha: 250 g ai/ha
How it was run: as §1

[6] = system: velvetleaf (Abutilon theophrasti); assay: Test G Pre-Emergence Protocol; details: Abutilon theophrasti, pre-emergence, 312 h, evaluated after 13 days; for pest or weed control at 15.625 g/ha: 15.625 g ai/ha; for pest or weed control at 15.625 g/ha / pest or weed control at 250 g/ha: read-out: Velvetleaf damage rating (100=total damage to plant; 0=no damage to plant); for pest or weed control at 62.5 g/ha: 62.5 g ai/ha, 100=total damage to plant, 0=no damage to plant, read-out: Velvetleaf damage rating; for pest or weed control at 250 g/ha: 250 g ai/ha
How it was run: as §1

[7] = system: barnyardgrass (Echinochloa crus-galli); assay: Test G Post-Emergence Protocol; details: Echinochloa crus-galli, post-emergence, 312 h, read-out: Barnyardgrass damage rating; for pest or weed control at 15.625 g/ha: 15.625 g ai/ha, evaluated after 13 days (100=total damage to plant; 0=no damage to plant); for pest or weed control at 62.5 g/ha: 62.5 g ai/ha; for pest or weed control at 62.5 g/ha / pest or weed control at 250 g/ha: evaluated after 13 days, 100=total damage to plant, 0=no damage to plant; for pest or weed control at 250 g/ha: 250 g ai/ha
How it was run: (§2)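 Pot-grown seedlings, 8 days old, raised in a glasshouse at 24/16 °C day/night with 14 h light and 65% humidity, were sprayed post-emergence with test compound in acetone/water (50:50) plus 0.5% Tween 20 at 15.625, 62.5 or 250 g/ha. Damage was scored visually 13 days later on a 0–100 scale (100 = total damage).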

[8] = system: corn (Zea mays); assay: Test G Post-Emergence Protocol; details: Zea mays, post-emergence, 312 h, read-out: Corn damage rating; for plant injury at 15.625 g/ha: 15.625 g ai/ha, evaluated after 13 days (100=total damage to plant; 0=no damage to plant); for plant injury at 62.5 g/ha: 62.5 g ai/ha; for plant injury at 62.5 g/ha / plant injury at 250 g/ha: evaluated after 13 days, 100=total damage to plant, 0=no damage to plant; for plant injury at 250 g/ha: 250 g ai/ha
How it was run: as §2

[9] = system: giant foxtail (Setaria faberi); assay: Test G Post-Emergence Protocol; details: Setaria faberi, post-emergence, 312 h, read-out: Foxtail, Giant damage rating; for pest or weed control at 15.625 g/ha: 15.625 g ai/ha, evaluated after 13 days (100=total damage to plant; 0=no damage to plant); for pest or weed control at 62.5 g/ha: 62.5 g ai/ha; for pest or weed control at 62.5 g/ha / pest or weed control at 250 g/ha: evaluated after 13 days, 100=total damage to plant, 0=no damage to plant; for pest or weed control at 250 g/ha: 250 g ai/ha
How it was run: as §2

[10] = system: ivy-leaved morning glory (Ipomoea hederacea); assay: Test G Post-Emergence Protocol; details: Ipomoea, post-emergence, 312 h, read-out: Morningglory, Ivy-leaved damage rating; for pest or weed control at 15.625 g/ha: 15.625 g ai/ha, evaluated after 13 days (100=total damage to plant; 0=no damage to plant); for pest or weed control at 62.5 g/ha: 62.5 g ai/ha; for pest or weed control at 62.5 g/ha / pest or weed control at 250 g/ha: evaluated after 13 days, 100=total damage to plant, 0=no damage to plant; for pest or weed control at 250 g/ha: 250 g ai/ha
How it was run: as §2

[11] = system: redroot pigweed (Amaranthus retroflexus); assay: Test G Post-Emergence Protocol; details: Amaranthus retroflexus, post-emergence, 312 h, read-out: Pigweed, Redroot damage rating; for pest or weed control at 15.625 g/ha: 15.625 g ai/ha, evaluated after 13 days (100=total damage to plant; 0=no damage to plant); for pest or weed control at 62.5 g/ha: 62.5 g ai/ha; for pest or weed control at 62.5 g/ha / pest or weed control at 250 g/ha: evaluated after 13 days, 100=total damage to plant, 0=no damage to plant; for pest or weed control at 250 g/ha: 250 g ai/ha
How it was run: as §2

[12] = system: velvetleaf (Abutilon theophrasti); assay: Test G Post-Emergence Protocol; details: Abutilon theophrasti, post-emergence, 312 h, read-out: Velvetleaf damage rating; for pest or weed control at 15.625 g/ha: 15.625 g ai/ha, evaluated after 13 days (100=total damage to plant; 0=no damage to plant); for pest or weed control at 62.5 g/ha: 62.5 g ai/ha; for pest or weed control at 62.5 g/ha / pest or weed control at 250 g/ha: evaluated after 13 days, 100=total damage to plant, 0=no damage to plant; for pest or weed control at 250 g/ha: 250 g ai/ha
How it was run: as §2

| SMILES | pest or weed control at 15.625 g/ha [1] | pest or weed control at 62.5 g/ha [1] | pest or weed control at 250 g/ha [1] | plant injury at 15.625 g/ha [2] | plant injury at 62.5 g/ha [2] | plant injury at 250 g/ha [2] | pest or weed control at 15.625 g/ha [3] | pest or weed control at 62.5 g/ha [3] | pest or weed control at 250 g/ha [3] | pest or weed control at 15.625 g/ha [4] | pest or weed control at 62.5 g/ha [4] | pest or weed control at 250 g/ha [4] | pest or weed control at 15.625 g/ha [5] | pest or weed control at 62.5 g/ha [5] | pest or weed control at 250 g/ha [5] | pest or weed control at 15.625 g/ha [6] | pest or weed control at 62.5 g/ha [6] | pest or weed control at 250 g/ha [6] | pest or weed control at 15.625 g/ha [7] | pest or weed control at 62.5 g/ha [7] | also measured |
| --- | --- | --- | --- | --- | --- | --- | --- | --- | --- | --- | --- | --- | --- | --- | --- | --- | --- | --- | --- | --- | --- |
| Cc1ccc(C2CN(C)C(=O)C2C(=O)Nc2cccc(F)c2F)cc1C#N (centres unmarked) [Compound 1687] | 40% | 70% | 80% | 0% | 40% | 90% | 60% | 70% | 90% | 0% | 40% | 50% | 0% | 10% | 30% | 0% | 0% | 10% | 0% | 50% | pest or weed control at 250 g/ha [7]: 80%; plant injury at 15.625 g/ha [8]: 10%; plant injury at 62.5 g/ha [8]: 40%; plant injury at 250 g/ha [8]: 90%; pest or weed control at 15.625 g/ha [9]: 60%; pest or weed control at 62.5 g/ha [9]: 80%; pest or weed control at 250 g/ha [9]: 80%; pest or weed control at 15.625 g/ha [10]: 20%; pest or weed control at 62.5 g/ha [10]: 60%; pest or weed control at 250 g/ha [10]: 70%; pest or weed control at 15.625 g/ha [11]: 40%; pest or weed control at 62.5 g/ha [11]: 40%; pest or weed control at 250 g/ha [11]: 50%; pest or weed control at 15.625 g/ha [12]: 40%; pest or weed control at 62.5 g/ha [12]: 40%; pest or weed control at 250 g/ha [12]: 50% |
| COc1ccc(C2CN(C)C(=O)C2C(=O)Nc2cccc(F)c2F)cc1C (centres unmarked) [Compound 1688] | 50% | 70% | 90% | 0% | 50% | 70% | 70% | 80% | 90% | 0% | 0% | 10% | 30% | 20% | 60% | 10% | 0% | 50% | 30% | 70% | pest or weed control at 250 g/ha [7]: 90%; plant injury at 15.625 g/ha [8]: 0%; plant injury at 62.5 g/ha [8]: 30%; plant injury at 250 g/ha [8]: 60%; pest or weed control at 15.625 g/ha [9]: 60%; pest or weed control at 62.5 g/ha [9]: 80%; pest or weed control at 15.625 g/ha [10]: 0%; pest or weed control at 62.5 g/ha [10]: 20%; pest or weed control at 250 g/ha [10]: 60%; pest or weed control at 15.625 g/ha [11]: 0%; pest or weed control at 62.5 g/ha [11]: 0%; pest or weed control at 250 g/ha [11]: 10%; pest or weed control at 15.625 g/ha [12]: 0%; pest or weed control at 62.5 g/ha [12]: 0%; pest or weed control at 250 g/ha [12]: 10% |
| COc1cc(Cl)cc(C2CN(C)C(=O)C2C(=O)Nc2cccc(F)c2F)c1 (centres unmarked) [Compound 1690] | 50% | 80% | 90% | 0% | 20% | 70% | 70% | 80% | 90% | 0% | 0% | 0% | 0% | 0% | 20% | 0% | 0% | 30% | 70% | 80% | pest or weed control at 250 g/ha [7]: 90%; plant injury at 15.625 g/ha [8]: 10%; plant injury at 62.5 g/ha [8]: 70%; plant injury at 250 g/ha [8]: 80%; pest or weed control at 15.625 g/ha [9]: 80%; pest or weed control at 62.5 g/ha [9]: 80%; pest or weed control at 250 g/ha [9]: 90%; pest or weed control at 15.625 g/ha [10]: 20%; pest or weed control at 62.5 g/ha [10]: 70%; pest or weed control at 250 g/ha [10]: 60%; pest or weed control at 15.625 g/ha [11]: 0%; pest or weed control at 62.5 g/ha [11]: 20%; pest or weed control at 250 g/ha [11]: 40%; pest or weed control at 15.625 g/ha [12]: 0%; pest or weed control at 62.5 g/ha [12]: 20%; pest or weed control at 250 g/ha [12]: 40% |
